In patent US20250296971A1, “GASTRIC INHIBITORY PEPTIDE RECEPTOR LIGANDS” (priority 2021, published 2025):
*1 amine or outer side, *2 acyl side, *3 side chain or, on linkers, in order; H or OH if unused. Where a SMILES comes first, the peptide text is derived from it. Bridges are numbered along the chain shown (N, C = ends). [ ]: non-standard residue; d: D form. The star is where a group is joined. X5 = NC(=O)[C@H](CCCCNC(=O)CN1CCN(CC(=O)O)CCN(CC(=O)O)CCN(CC(=O)O)CC1)NC(=O)CCC(=O)NCCCOCCOCCOCCCN*; X3 = O=C(O)CN1CCN(CC(=O)O)CCN(CC(=O)NCCCOCCOCCOCCCN*)CCN(CC(=O)O)CC1; Propanoyl(3-(4-F-phenyl)) = O=C(CCc1ccc(F)cc1)*; 1Nal = N[C@@H](Cc1cccc2ccccc12)C(=O)O; Desaminotyrosyl = O=C(CCc1ccc(O)cc1)*; mXylylene = c1cc(C[*:1])cc(C[*:2])c1; Hydrocinnamoyl = O=C(CCc1ccccc1)*; X7 = c1cc(CSCCN[*:2])cc(C[*:1])c1; tBuAla = CC(C)(C)C[C@H](N)C(=O)O; Cha = N[C@@H](CC1CCCCC1)C(=O)O; NMeD = CN[C@@H](CC(=O)O)C(=O)O; Suc = O=C(CCC(=O)[*:2])[*:1]; Aib = CC(C)(N)C(=O)O

Biological target: T1, GIPR (CHO-K1-hGIPR cells) (Homo sapiens, UniProt P48546)
T1 construct: host or cells: CHO-K1
T1 sequence (P48546 22-466): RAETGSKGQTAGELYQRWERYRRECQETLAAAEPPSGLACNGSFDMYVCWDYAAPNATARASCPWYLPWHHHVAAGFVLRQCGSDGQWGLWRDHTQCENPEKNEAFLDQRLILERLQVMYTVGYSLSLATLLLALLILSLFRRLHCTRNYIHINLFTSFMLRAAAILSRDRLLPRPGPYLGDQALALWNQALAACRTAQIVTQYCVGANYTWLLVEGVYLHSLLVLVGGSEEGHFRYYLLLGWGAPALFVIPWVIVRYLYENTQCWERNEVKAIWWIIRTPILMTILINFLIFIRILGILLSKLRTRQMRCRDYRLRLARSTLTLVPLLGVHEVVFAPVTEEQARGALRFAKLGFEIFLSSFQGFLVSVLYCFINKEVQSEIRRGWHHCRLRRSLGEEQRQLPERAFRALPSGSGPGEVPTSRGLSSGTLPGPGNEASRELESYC
Assay: FACS binding assay
Details: competition with 20 nM GIP-057, 4° C., 1 hour, read-out: pIC50 Category (converted)
In short: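 Peptide binding read by flow cytometry as APC-channel median fluorescence, fitted with a four-parameter logistic to yield EC50 or IC50. Cells were hGIPR-transfected CHO-K1 in PBS with 1% FCS, detected with 1 μg/mL APC-streptavidin, 30 min on ice.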

Structure (SMILES) | IC50 [nM]
CC[C@H](C)[C@@H]1NC(=O)[C@H](CC(C)C)NC(=O)C(C)(C)NC(=O)[C@@H](NC(=O)[C@H](CC(C)C)NC(=O)[C@H](CCC(=O)O)NC(=O)[C@@H]2CCCN2C(=O)[C@H](Cc2c[nH]c3ccccc23)NC(=O)[C@H](Cc2c[nH]c3ccccc23)NC(=O)[C@H](CC(=O)O)N(C)C(=O)CCC(=O)NCCCOCCOCCOCCCNC(=O)CN2CCN(CC(=O)O)CCN(CC(=O)O)CCN(CC(=O)O)CC2)CSCc2cccc(c2)CSCCNC1=O [GIP-130, DOTA-Ttds-Nmd-Trp-Trp-Pro-Glu-Leu-[Cys(3MeBn)-Aib-Leu-Ile-AET]] ({X3-Suc}-[NMeD]WWPELC[Aib]LI; linker 7-C via X7) | 10 to 79.4
CC[C@H](C)[C@@H]1NC(=O)[C@H](CC(C)C)NC(=O)C(C)(C)NC(=O)[C@@H](NC(=O)[C@H](CC(C)(C)C)NC(=O)[C@H](CCC(=O)O)NC(=O)[C@@H]2CCCN2C(=O)[C@H](Cc2c[nH]c3ccccc23)NC(=O)[C@H](Cc2c[nH]c3ccccc23)NC(=O)[C@H](CC(=O)O)NC(C)=O)CSCc2cccc(c2)CSC[C@@H](C(=O)NCCCOCCOCCOCCCNC(=O)CCC(=O)N[C@@H](CCCCNC(=O)CN2CCN(CC(=O)O)CCN(CC(=O)O)CCN(CC(=O)O)CC2)C(N)=O)NC1=O [GIP-132, Ac-Asp-Trp-Trp-Pro-Glu-Npg-[Cys(3MeBn)-Aib-Leu-Ile-Cys]-Ttds-Lys(DOTA)-NH2] (Ac-DWWPE[tBuAla]C[Aib]LIC-X5; linker 7-11 via mXylylene) | 10 to 79.4
CC[C@H](C)[C@@H]1NC(=O)[C@H](CC(C)(C)C)NC(=O)C(C)(C)NC(=O)[C@@H](NC(=O)[C@H](CC(C)C)NC(=O)[C@H](CCC(=O)O)NC(=O)[C@@H]2CCCN2C(=O)[C@H](Cc2c[nH]c3ccccc23)NC(=O)[C@H](Cc2c[nH]c3ccccc23)NC(=O)[C@H](CC(=O)O)NC(C)=O)CSCc2cccc(c2)CSC[C@@H](C(=O)NCCCOCCOCCOCCCNC(=O)CCC(=O)N[C@@H](CCCCNC(=O)CN2CCN(CC(=O)O)CCN(CC(=O)O)CCN(CC(=O)O)CC2)C(N)=O)NC1=O [GIP-133, Ac-Asp-Trp-Trp-Pro-Glu-Leu-[Cys(3MeBn)-Aib-Npg-Ile-Cys]-Ttds-Lys(DOTA)-NH2] (Ac-DWWPELC[Aib][tBuAla]IC-X5; linker 7-11 via mXylylene) | 10 to 79.4
CC[C@H](C)[C@@H]1NC(=O)[C@H](CC2CCCCC2)NC(=O)C(C)(C)NC(=O)[C@@H](NC(=O)[C@H](CC(C)C)NC(=O)[C@H](CCC(=O)O)NC(=O)[C@@H]2CCCN2C(=O)[C@H](Cc2c[nH]c3ccccc23)NC(=O)[C@H](Cc2c[nH]c3ccccc23)NC(=O)[C@H](CC(=O)O)NC(C)=O)CSCc2cccc(c2)CSC[C@@H](C(=O)NCCCOCCOCCOCCCNC(=O)CCC(=O)N[C@@H](CCCCNC(=O)CN2CCN(CC(=O)O)CCN(CC(=O)O)CCN(CC(=O)O)CC2)C(N)=O)NC1=O [GIP-134, Ac-Asp-Trp-Trp-Pro-Glu-Leu-[Cys(3MeBn)-Aib-Cha-Ile-Cys]-Ttds-Lys(DOTA)-NH2] (Ac-DWWPELC[Aib][Cha]IC-X5; linker 7-11 via mXylylene) | 10 to 79.4
CC(=O)N[C@@H](CC(=O)O)C(=O)N[C@@H](Cc1c[nH]c2ccccc12)C(=O)N[C@@H](Cc1cccc2ccccc12)C(=O)N1CCC[C@H]1C(=O)N[C@@H](CCC(=O)O)C(=O)N[C@H](CC(C)C)C(=O)N[C@H]1CSCc2cccc(c2)CSC[C@@H](C(=O)NCCCOCCOCCOCCCNC(=O)CCC(=O)N[C@@H](CCCCNC(=O)CN2CCN(CC(=O)O)CCN(CC(=O)O)CCN(CC(=O)O)CC2)C(N)=O)NC(=O)[C@H](C(C)C)NC(=O)[C@H](CC(C)C)NC(=O)[C@H](C)NC1=O [GIP-138, Ac-Asp-Trp-1Ni-Pro-Glu-leu-[Cys(3MeBn)-Ala-Leu-Val-Cys]-Ttds-Lys(DOTA)-NH2] (Ac-DW[1Nal]PE[dL]CALVC-X5; linker 7-11 via mXylylene) | 10 to 79.4

Second part, the compound after the results:

IC50 [nM] | Structure (SMILES)
10 to 79.4 | CC[C@H](C)[C@@H]1NC(=O)[C@H](CC(C)C)NC(=O)C(C)(C)NC(=O)[C@@H](NC(=O)[C@H](CC(C)C)NC(=O)[C@H](CCC(=O)O)NC(=O)[C@@H]2CCCN2C(=O)[C@H](Cc2c[nH]c3ccccc23)NC(=O)[C@H](Cc2c[nH]c3ccccc23)NC(=O)[C@H](CC(=O)O)NC(C)=O)CSCc2cccc(c2)CSC[C@@H](C(=O)NCCCOCCOCCOCCCNC(=O)CCC(=O)N[C@@H](CCCCNC(=O)CN2CCN(CC(=O)O)CCN(CC(=O)O)CCN(CC(=O)O)CC2)C(N)=O)NC1=O [GIP-131, Ac-Asp-Trp-Trp-Pro-Glu-Leu-[Cys(3MeBn)-Aib-Leu-Ile-Cys]-Ttds-Lys(DOTA)-NH2] (Ac-DWWPELC[Aib]LIC-X5; linker 7-11 via mXylylene)
10 to 79.4 | CC[C@H](C)[C@@H]1NC(=O)[C@H](CC(C)C)NC(=O)C(C)(C)NC(=O)[C@@H](NC(=O)[C@@H](CC(C)C)NC(=O)[C@H](CCC(=O)O)NC(=O)[C@@H]2CCCN2C(=O)[C@H](Cc2c[nH]c3ccccc23)NC(=O)[C@H](Cc2c[nH]c3ccccc23)NC(=O)[C@H](CC(=O)O)NC(=O)CCc2ccccc2)CSCc2cccc(c2)CSC[C@@H](C(=O)NCCCOCCOCCOCCCNC(=O)CCC(=O)N[C@@H](CCCCNC(=O)CN2CCN(CC(=O)O)CCN(CC(=O)O)CCN(CC(=O)O)CC2)C(N)=O)NC1=O [GIP-135, Php-Asp-Trp-Trp-Pro-Glu-leu-[Cys(3MeBn)-Aib-Leu-Ile-Cys]-Ttds-Lys(DOTA)-NH2] (Hydrocinnamoyl-DWWPE[dL]C[Aib]LIC-X5; linker 7-11 via mXylylene)
10 to 79.4 | CC[C@H](C)[C@@H]1NC(=O)[C@H](CC(C)C)NC(=O)C(C)(C)NC(=O)[C@@H](NC(=O)[C@@H](CC(C)C)NC(=O)[C@H](CCC(=O)O)NC(=O)[C@@H]2CCCN2C(=O)[C@H](Cc2c[nH]c3ccccc23)NC(=O)[C@H](Cc2c[nH]c3ccccc23)NC(=O)[C@H](CC(=O)O)NC(=O)CCc2ccc(F)cc2)CSCc2cccc(c2)CSC[C@@H](C(=O)NCCCOCCOCCOCCCNC(=O)CCC(=O)N[C@@H](CCCCNC(=O)CN2CCN(CC(=O)O)CCN(CC(=O)O)CCN(CC(=O)O)CC2)C(N)=O)NC1=O [GIP-136, 4FPhp-Asp-Trp-Trp-Pro-Glu-leu-[Cys(3MeBn)-Aib-Leu-Ile-Cys]-Ttds-Lys(DOTA)-NH2] ({Propanoyl(3-(4-F-phenyl))}-DWWPE[dL]C[Aib]LIC-X5; linker 7-11 via mXylylene)
10 to 79.4 | CC[C@H](C)[C@@H]1NC(=O)[C@H](CC(C)C)NC(=O)C(C)(C)NC(=O)[C@@H](NC(=O)[C@@H](CC(C)C)NC(=O)[C@H](CCC(=O)O)NC(=O)[C@@H]2CCCN2C(=O)[C@H](Cc2c[nH]c3ccccc23)NC(=O)[C@H](Cc2c[nH]c3ccccc23)NC(=O)[C@H](CC(=O)O)NC(=O)CCc2ccc(O)cc2)CSCc2cccc(c2)CSC[C@@H](C(=O)NCCCOCCOCCOCCCNC(=O)CCC(=O)N[C@@H](CCCCNC(=O)CN2CCN(CC(=O)O)CCN(CC(=O)O)CCN(CC(=O)O)CC2)C(N)=O)NC1=O [GIP-137, 4OHPhp-Asp-Trp-Trp-Pro-Glu-leu-[Cys(3MeBn)-Aib-Leu-Ile-Cys]-Ttds-Lys(DOTA)-NH2] (Desaminotyrosyl-DWWPE[dL]C[Aib]LIC-X5; linker 7-11 via mXylylene)
